The numbers were not newly measured in patent publication US9907782B2, “Treatment or prevention of seborrheic keratosis using artemisinin and derivatives thereof” (EPIPHARM AG, priority 2014, dated 2018), which cites them from elsewhere.

One data set addresses T1, tyrosinase (Homo sapiens, UniProt P14679).
T1 sequence (P14679 19-529): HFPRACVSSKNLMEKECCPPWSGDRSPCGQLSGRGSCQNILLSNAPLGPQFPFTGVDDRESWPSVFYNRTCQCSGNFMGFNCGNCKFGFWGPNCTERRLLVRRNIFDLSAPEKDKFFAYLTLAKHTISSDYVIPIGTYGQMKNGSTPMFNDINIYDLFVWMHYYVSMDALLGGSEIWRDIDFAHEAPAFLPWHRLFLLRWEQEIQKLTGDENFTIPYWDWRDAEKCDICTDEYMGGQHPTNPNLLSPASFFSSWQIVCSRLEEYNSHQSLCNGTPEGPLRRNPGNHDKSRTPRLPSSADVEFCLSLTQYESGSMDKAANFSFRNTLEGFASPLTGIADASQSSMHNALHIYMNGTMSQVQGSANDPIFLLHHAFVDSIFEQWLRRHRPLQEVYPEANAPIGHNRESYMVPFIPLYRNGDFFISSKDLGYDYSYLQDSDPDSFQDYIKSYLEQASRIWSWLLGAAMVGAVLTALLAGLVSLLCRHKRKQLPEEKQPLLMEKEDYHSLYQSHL
The note with it: according to US 2010/0061948 A1, allegedly.

In a further data set the test system is psoriasis. As to conditions: topical; three psoriasis patients.
In another data set the test system is melanin synthesis. The note with it: according to US 2010/0061948 A1, allegedly.
Data set [1] concerns seborrheic keratosis lesions. The note with it: for clinical improvement: once daily application, calcipotriene 0.005% ointment, imiquimod 5% cream.
Data set [2] has as its system seborrheic keratosis lesions.

Turning to `C[C@@H]1CC[C@H]2[C@@H](C)C(=O)O[C@@H]3O[C@@]4(C)CC[C@@H]1[C@]32OO4` [artemisinin], the solubility in water result was “very hard to dissolve in water”. The tyrosinase activity entry on tyrosinase was “suppressed”. Moreover, the treatment of psoriasis entry in the data set on psoriasis is recorded as “successfully”. In the data set on melanin synthesis, the melanin synthesis result is given as “suppressed”. For the compound `C[C@H]1[C@H](OC(=O)CCC(=O)O)O[C@@H]2O[C@@]3(C)CC[C@H]4[C@H](C)CC[C@@H]1[C@@]24OO3` [artesunate], the solubility in water entry is reported as “more water-soluble”. For `C=C1/C(=C\C=C2/CCC[C@]3(C)[C@@H]([C@H](C)/C=C/[C@@H](O)C4CC4)CC[C@@H]23)C[C@@H](O)C[C@@H]1O` [calcipotriene], the clinical improvement result in data set [1] (tazarotene 0.1% cream) was “did not result in any clinical improvement”. Regarding `C[C@H]1[C@@H](O)O[C@@H]2O[C@@]3(C)CC[C@H]4[C@H](C)CC[C@@H]1[C@@]24OO3` [dihydroartemisinin], the solubility in water result is listed as “more water-soluble”. On to `CC(C)Cn1cnc2c(N)nc3ccccc3c21` [imiquimod], for which the clinical improvement result in data set [1] (tazarotene 0.1% cream) is recorded as “did not result in any clinical improvement”. On to `CCOC(=O)c1ccc(C#Cc2ccc3c(c2)C(C)(C)CCS3)nc1` [tazarotene], for which the “clinical and histological improvement” value in data set [1] (bi-daily application, tazarotene 0.1% cream) is recorded as “less than half the patients”. For the same compound, the clinical improvement result in data set [1] (tazarotene 0.1% cream) is “did not result in any clinical improvement”. In addition, in data set [1] (topical tazarotene), the “patients reporting burning, pruritus and redness (irritation)” value is “⅔”. In the case of `NC(N)=O` [urea], the side effects result in data set [2] (50% urea under occlusion) is on record as “no side effects were reported”. In addition, the “thickness of seborrheic keratosis lesions” value in data set [2] (50% urea under occlusion and digitally scraping the lesions, lesions did persist albeit with reduced size) is “some reduction of the thickness”.
